# Experiments:
# Format in all cases: cell-based
# MH100x4 = MH100x4 luciferase reporter without receptor
# Description: (§1) MH100x4 is a luciferase reporter with four copies of a GAL4 […] response element. GAL-L refers to the ligand-binding domain of the indicated receptor fused to the C-terminus of the GAL4 DNA binding domain.
# ERRγ (GAL-ERRg) = assay: MH100x4 luciferase reporter with GAL-ERRg; design: Reporter Activity: unit not given here
# Description: as §1
# ERRβ (GAL-L-ERRb) = biological target: T1, ERRβ (GAL-L-ERRb) (Homo sapiens, UniProt O95718); assay: MH100x4 luciferase reporter with GAL-L-ERRb; design: Reporter Activity: unit not given here
# T1 construct: expressed in transfected cells
# T1 sequence (O95718 208-432 limits assumed): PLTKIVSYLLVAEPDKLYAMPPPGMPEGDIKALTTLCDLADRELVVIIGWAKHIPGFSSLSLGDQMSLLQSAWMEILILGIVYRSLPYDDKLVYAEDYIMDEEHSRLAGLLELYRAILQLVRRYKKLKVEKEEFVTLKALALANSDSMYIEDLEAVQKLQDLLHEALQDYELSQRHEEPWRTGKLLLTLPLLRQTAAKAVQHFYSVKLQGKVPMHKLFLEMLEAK
# Description: as §1
# ERRα (GAL-ERRa) = assay: MH100x4 luciferase reporter with GAL-ERRa; design: Reporter Activity: unit not given here
# Description: as §1
# [1] = Table 4, DY39 dose head 0 (1st of 2), None 1
# [2] = Table 4, DY39 dose head 0 (2nd of 2), None 1
# [3] = Table 2, dose 5 (unit not given), None 1.00
# [4] = Table 2, dose 5 (unit not given), None 1.25
# [5] = Table 2, dose 5 (unit not given), None 1.44
# [6] = Table 2, dose 5 (unit not given), None 8.54
# [7] = Table 2, dose 5 (unit not given), None 0.49
smiles,measurement,setting,value
CC(C)CC(=C(c1ccc(O)cc1)c1ccc(OCCN(C)C)cc1)c1ccccc1 (mixture of isomers) [DY39],Fold Activation,MH100x4; [1],1.08
same,Reporter Activity,"MH100x4; Table 4, DY39 dose head 0 (1st of 2), None 1.14",1.23
same,Fold Activation,MH100x4; [2],0.89
same,Reporter Activity,"MH100x4; Table 4, DY39 dose head 0 (2nd of 2), None 1.14",1.02
same,Fold Activation,"MH100x4; Table 4, dose 0.1 (unit not given), None 1/1.03",0.96
same,Reporter Activity,"MH100x4; Table 4, dose 0.1 (unit not given), None 1.14/1.17",1.1
same,Fold Activation,"MH100x4; Table 4, dose 0.3 (unit not given), None 1/1.03",0.96
same,Reporter Activity,"MH100x4; Table 4, dose 0.3 (unit not given), None 1.14/1.17",1.09
same,Fold Activation,"MH100x4; Table 4, dose 1 (unit not given), None 1/1.03",0.8
same,Reporter Activity,"MH100x4; Table 4, dose 1 (unit not given), None 1.14/1.17",0.9
same,Fold Activation,"MH100x4; Table 4, dose 3 (unit not given), None 1/1.03",0.73
same,Reporter Activity,"MH100x4; Table 4, dose 3 (unit not given), None 1.14/1.17",0.83
same,Fold Activation,ERRγ (GAL-ERRg); [1],0.94
same,Reporter Activity,"ERRγ (GAL-ERRg); Table 4, DY39 dose head 0 (1st of 2), None 5.49",5.14
same,Fold Activation,ERRγ (GAL-ERRg); [2],0.96
same,Reporter Activity,"ERRγ (GAL-ERRg); Table 4, DY39 dose head 0 (2nd of 2), None 5.49",5.25
same,Fold Activation,"ERRγ (GAL-ERRg); Table 4, dose 0.1 (unit not given), None 1/1.01",0.94
same,Reporter Activity,"ERRγ (GAL-ERRg); Table 4, dose 0.1 (unit not given), None 5.49/5.56",5.18
same,Fold Activation,"ERRγ (GAL-ERRg); Table 4, dose 0.3 (unit not given), None 1/1.01",0.91
same,Reporter Activity,"ERRγ (GAL-ERRg); Table 4, dose 0.3 (unit not given), None 5.49/5.56",4.97
same,Fold Activation,"ERRγ (GAL-ERRg); Table 4, dose 1 (unit not given), None 1/1.01",0.5
same,Reporter Activity,"ERRγ (GAL-ERRg); Table 4, dose 1 (unit not given), None 5.49/5.56",2.7
same,Fold Activation,"ERRγ (GAL-ERRg); Table 4, dose 3 (unit not given), None 1/1.01",0.3
same,Reporter Activity,"ERRγ (GAL-ERRg); Table 4, dose 3 (unit not given), None 5.49/5.56",1.67
same,inhibition of the activity of ERRγ,ERRγ (GAL-ERRg); result in words,inhibit the activity
same,Fold Activation,ERRβ (GAL-L-ERRb); [1],1.25
same,Reporter Activity,"ERRβ (GAL-L-ERRb); Table 4, DY39 dose head 0 (1st of 2), None 7.21",9.02
same,Fold Activation,ERRβ (GAL-L-ERRb); [2],1.04
same,Reporter Activity,"ERRβ (GAL-L-ERRb); Table 4, DY39 dose head 0 (2nd of 2), None 7.21",7.53
same,Fold Activation,"ERRβ (GAL-L-ERRb); Table 4, dose 0.1 (unit not given), None 1/1.2",1.2
same,Reporter Activity,"ERRβ (GAL-L-ERRb); Table 4, dose 0.1 (unit not given), None 7.21/8.67",8.63
same,Fold Activation,"ERRβ (GAL-L-ERRb); Table 4, dose 0.3 (unit not given), None 1/1.2",0.95
same,Reporter Activity,"ERRβ (GAL-L-ERRb); Table 4, dose 0.3 (unit not given), None 7.21/8.67",6.84
same,Fold Activation,"ERRβ (GAL-L-ERRb); Table 4, dose 1 (unit not given), None 1/1.2",0.4
same,Reporter Activity,"ERRβ (GAL-L-ERRb); Table 4, dose 1 (unit not given), None 7.21/8.67",2.9
same,Fold Activation,"ERRβ (GAL-L-ERRb); Table 4, dose 3 (unit not given), None 1/1.2",0.28
same,Reporter Activity,"ERRβ (GAL-L-ERRb); Table 4, dose 3 (unit not given), None 7.21/8.67",1.99
same,inhibition of the activity of ERRβ,ERRβ (GAL-L-ERRb); result in words,inhibit the activity
same,Fold Activation,ERRα (GAL-ERRa); [1],1.09
same,Reporter Activity,"ERRα (GAL-ERRa); Table 4, DY39 dose head 0 (1st of 2), None 27.7",30.2
same,Fold Activation,ERRα (GAL-ERRa); [2],0.95
same,Reporter Activity,"ERRα (GAL-ERRa); Table 4, DY39 dose head 0 (2nd of 2), None 27.7",26.4
same,Fold Activation,"ERRα (GAL-ERRa); Table 4, dose 0.1 (unit not given), None 1/1.23",1.08
same,Reporter Activity,"ERRα (GAL-ERRa); Table 4, dose 0.1 (unit not given), None 27.7/34.05",30
same,Fold Activation,"ERRα (GAL-ERRa); Table 4, dose 0.3 (unit not given), None 1/1.23",1.09
same,Reporter Activity,"ERRα (GAL-ERRa); Table 4, dose 0.3 (unit not given), None 27.7/34.05",30.1
same,Fold Activation,"ERRα (GAL-ERRa); Table 4, dose 1 (unit not given), None 1/1.23",1.2
same,Reporter Activity,"ERRα (GAL-ERRa); Table 4, dose 1 (unit not given), None 27.7/34.05",33
same,Fold Activation,"ERRα (GAL-ERRa); Table 4, dose 3 (unit not given), None 1/1.23",1.31
same,Reporter Activity,"ERRα (GAL-ERRa); Table 4, dose 3 (unit not given), None 27.7/34.05",36.2
CCCCCCCCCCCCOc1ccc(/C(CC)=C(\CC)c2ccc(O)cc2)cc1 [DY14],Fold Activation,ERRγ (GAL-ERRg); [3],1.10
same,Reporter Activity,ERRγ (GAL-ERRg); [4],1.38
same,Fold Activation,ERRβ (GAL-L-ERRb); [3],0.96
same,Reporter Activity,ERRβ (GAL-L-ERRb); [5],1.38
same,Fold Activation,ERRα (GAL-ERRa); [3],1.01
same,Reporter Activity,ERRα (GAL-ERRa); [6],8.63
CCCCCCCCCCCCOc1ccc(C(CC)=C(CC)c2ccc(OCCCCCCCCCCCC)cc2)cc1 [DY15],Reporter Activity,MH100x4; [7],0.4
same,Fold Activation,MH100x4; [3],0.82
same,Fold Activation,ERRγ (GAL-ERRg); [3],0.89
same,Reporter Activity,ERRγ (GAL-ERRg); [4],1.11
same,Fold Activation,ERRβ (GAL-L-ERRb); [3],0.69
same,Reporter Activity,ERRβ (GAL-L-ERRb); [5],1
same,Fold Activation,ERRα (GAL-ERRa); [3],0.83
same,Reporter Activity,ERRα (GAL-ERRa); [6],7.06
CCC(=C(CC)c1ccc(O)c(C=C(C)C)c1)c1ccc(O)cc1 [DY16],Reporter Activity,MH100x4; [7],0.35
same,Fold Activation,MH100x4; [3],0.71
same,Fold Activation,ERRγ (GAL-ERRg); [3],0.91
same,Reporter Activity,ERRγ (GAL-ERRg); [4],1.14
same,Fold Activation,ERRβ (GAL-L-ERRb); [3],0.49
same,Reporter Activity,ERRβ (GAL-L-ERRb); [5],0.71
same,Fold Activation,ERRα (GAL-ERRa); [3],0.66
same,Reporter Activity,ERRα (GAL-ERRa); [6],5.63
CCC(=C(CC)c1ccc(O)c(C(C)C)c1)c1ccc(O)cc1 [DY17],Reporter Activity,MH100x4; [7],0.39
same,Fold Activation,MH100x4; [3],0.80
same,Fold Activation,ERRγ (GAL-ERRg); [3],0.73
same,Reporter Activity,ERRγ (GAL-ERRg); [4],0.91
same,Fold Activation,ERRβ (GAL-L-ERRb); [3],0.53
same,Reporter Activity,ERRβ (GAL-L-ERRb); [5],0.76
same,Fold Activation,ERRα (GAL-ERRa); [3],0.61
same,Reporter Activity,ERRα (GAL-ERRa); [6],5.18
CCC(=C(CC)c1ccc(O)c(C(C)(C)C)c1)c1ccc(O)cc1 [DY18],Reporter Activity,MH100x4; [7],0.26
same,Fold Activation,MH100x4; [3],0.53
same,Fold Activation,ERRγ (GAL-ERRg); [3],0.58
same,Reporter Activity,ERRγ (GAL-ERRg); [4],0.73
same,Fold Activation,ERRβ (GAL-L-ERRb); [3],0.42
same,Reporter Activity,ERRβ (GAL-L-ERRb); [5],0.6
same,Fold Activation,ERRα (GAL-ERRa); [3],0.40
same,Reporter Activity,ERRα (GAL-ERRa); [6],3.39

# — patent US8119695B2, “Compounds and methods for treating breast cancer and other diseases” (City of Hope, priority 2003, dated 2012)
